From article PMC7611705 (Science translational medicine, 2021)
Structures can show the parent of a compound that is named as a salt. Each block holds one compound with its values, some of them ahead of it.

How the values were obtained:
RSK4 [1] = biological target: T1, RSK4 (Homo sapiens, UniProt Q9UK32); assay: biochemical; details: for activity in RSK4 HTRF-activation assay (inhibitor or inactive): floxacin family members
A549 cells [2] = assay: Western blot of BCL2, cIAP1 and cIAP2 expression in A549 cells; assay type: cell-based; details: 24 h
A549 cells [3] = assay: Caspase activation in A549 cells; assay type: cell-based; details: cisplatin 12.5 μM 24 h
A549 cells [4] = assay: Random cell migration / 3D collagen-I invasion of A549 cells; assay type: cell-based; details: for cell migration/invasiveness: inhibitors 10 μM
[5] = biological target: RSK4 N-terminal kinase domain (RSK4-NTKD) (Homo sapiens, UniProt Q9UK32); assay: Differential scanning fluorimetry; assay type: binding; details: inactive/dephosphorylated (APO) vs fully-active (ATP)
ERK = ERK (Homo sapiens, UniProt P28482); assay: ERK activity; assay type: biochemical
RSK4 [6] = biological target: T1, RSK4; assay type: biochemical
bladder cancer explants = assay: Patient-derived bladder cancer explants; details: synergistic in two, additive in one
panel of 140 kinases = assay: In-vitro activity screen against a panel of 140 kinases; assay type: biochemical; details: 10 μM
A549 cells [7] = assay: Cisplatin/taxol sensitisation of A549 cells; assay type: cell-based
A549-Luc xenograft = assay: A549-Luc subcutaneous xenograft in nude mice; assay type: in vivo; details: 30 mg/kg daily oral gavage, 14 days
RSK1 = RSK1 (Homo sapiens, UniProt Q15418); assay: RSK1 activation in cells; assay type: cell-based; details: preliminary data
[8] = system: patients undergoing chemotherapy; assay: Retrospective overall survival analysis of the SIGNIFICANT trial; assay type: in vivo, human
cIAP1 and cIAP2 = assay: Cellular cIAP1 and cIAP2 expression after levofloxacin; assay type: cell-based; details: concentrations achievable from the clinical trial dose

T1 sequence (Q9UK32 whole entry): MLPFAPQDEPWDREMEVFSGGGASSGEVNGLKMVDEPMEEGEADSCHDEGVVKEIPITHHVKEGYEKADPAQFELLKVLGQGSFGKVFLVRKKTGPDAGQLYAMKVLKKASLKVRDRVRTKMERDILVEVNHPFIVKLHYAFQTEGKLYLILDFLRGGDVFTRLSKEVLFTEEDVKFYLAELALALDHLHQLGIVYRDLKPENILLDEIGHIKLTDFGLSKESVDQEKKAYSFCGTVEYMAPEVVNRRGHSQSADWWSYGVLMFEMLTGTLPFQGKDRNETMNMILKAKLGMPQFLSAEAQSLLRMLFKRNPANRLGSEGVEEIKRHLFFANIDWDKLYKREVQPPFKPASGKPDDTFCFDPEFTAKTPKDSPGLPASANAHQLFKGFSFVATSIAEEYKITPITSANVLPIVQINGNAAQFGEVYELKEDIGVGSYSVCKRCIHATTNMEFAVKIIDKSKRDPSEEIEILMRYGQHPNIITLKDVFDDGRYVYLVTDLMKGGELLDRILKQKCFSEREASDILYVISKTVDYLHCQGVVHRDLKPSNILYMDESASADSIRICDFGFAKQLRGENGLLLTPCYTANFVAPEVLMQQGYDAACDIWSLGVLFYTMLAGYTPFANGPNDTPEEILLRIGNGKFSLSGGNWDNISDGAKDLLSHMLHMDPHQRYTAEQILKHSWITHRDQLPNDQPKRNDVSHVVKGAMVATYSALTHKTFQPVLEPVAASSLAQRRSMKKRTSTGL
Sequence of RSK4 N-terminal kinase domain (RSK4-NTKD) (Q9UK32 48-349): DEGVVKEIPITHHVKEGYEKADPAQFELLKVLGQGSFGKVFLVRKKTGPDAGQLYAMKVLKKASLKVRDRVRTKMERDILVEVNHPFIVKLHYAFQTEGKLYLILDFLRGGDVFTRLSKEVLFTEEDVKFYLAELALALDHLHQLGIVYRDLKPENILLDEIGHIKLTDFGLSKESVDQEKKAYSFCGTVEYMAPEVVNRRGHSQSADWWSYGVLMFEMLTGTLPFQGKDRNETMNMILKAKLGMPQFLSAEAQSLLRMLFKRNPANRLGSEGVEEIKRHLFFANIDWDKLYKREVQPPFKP
Sequence of RSK1 (Q15418 whole entry): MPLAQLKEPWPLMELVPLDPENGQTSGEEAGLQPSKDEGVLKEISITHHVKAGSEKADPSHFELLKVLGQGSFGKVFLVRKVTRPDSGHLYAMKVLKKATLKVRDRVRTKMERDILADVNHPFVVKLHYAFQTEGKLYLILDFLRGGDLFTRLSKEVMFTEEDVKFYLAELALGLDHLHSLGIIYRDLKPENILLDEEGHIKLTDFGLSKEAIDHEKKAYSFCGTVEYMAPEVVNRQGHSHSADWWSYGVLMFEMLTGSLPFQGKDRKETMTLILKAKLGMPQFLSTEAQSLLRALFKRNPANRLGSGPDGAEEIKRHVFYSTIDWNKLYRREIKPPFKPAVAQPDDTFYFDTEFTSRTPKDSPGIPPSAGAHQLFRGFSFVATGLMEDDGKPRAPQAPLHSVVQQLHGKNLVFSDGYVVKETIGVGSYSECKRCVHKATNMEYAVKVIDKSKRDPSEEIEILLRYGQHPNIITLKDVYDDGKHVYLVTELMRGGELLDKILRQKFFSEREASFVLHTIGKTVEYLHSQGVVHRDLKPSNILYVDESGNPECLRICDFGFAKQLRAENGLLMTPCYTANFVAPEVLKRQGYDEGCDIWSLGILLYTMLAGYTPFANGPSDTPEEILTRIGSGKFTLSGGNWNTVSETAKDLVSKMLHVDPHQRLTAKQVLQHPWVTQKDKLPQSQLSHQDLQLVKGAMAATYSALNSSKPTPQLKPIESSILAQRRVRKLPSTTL
Sequence of ERK (P28482 whole entry): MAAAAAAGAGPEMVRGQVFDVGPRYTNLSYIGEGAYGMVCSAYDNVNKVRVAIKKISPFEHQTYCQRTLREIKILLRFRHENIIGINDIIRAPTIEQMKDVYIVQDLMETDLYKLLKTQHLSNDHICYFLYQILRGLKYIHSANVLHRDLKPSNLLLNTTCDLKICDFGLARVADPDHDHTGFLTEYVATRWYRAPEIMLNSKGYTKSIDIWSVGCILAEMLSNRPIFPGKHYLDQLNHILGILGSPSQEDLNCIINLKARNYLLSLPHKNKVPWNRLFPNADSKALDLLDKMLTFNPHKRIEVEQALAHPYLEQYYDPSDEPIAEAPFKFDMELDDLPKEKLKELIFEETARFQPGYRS

SMILES: CC(C)CCN1c2nc(Nc3cc(F)c(O)c(F)c3)ncc2N(C)C(=O)C1C (centres unmarked) [BI-D1870]
- expression of BCL2 and cIAP1/2 (A549 cells [2]): an effect not seen
- caspase activation in response to cisplatin (A549 cells [3]): failed to promote cisplatin-induced caspase activation

SMILES: CC(=O)O[C@@H]1[C@@H](OC(C)=O)[C@@H](O)[C@H](Oc2c(-c3ccc(O)cc3)oc3cc(O)cc(O)c3c2=O)O[C@H]1C [SL-0101]
- invasiveness of A549 cells with pan-RSK inhibitor (A549 cells [4]): promotes lung cancer invasiveness

SMILES: O=C(O)c1cn(C2CC2)c2cc(N3CCNCC3)c(F)cc2c1=O [ciprofloxacin]
- cell migration/invasiveness (A549 cells [4]): did not impair cell invasiveness
- binding to RSK4-NTKD [5]: failed to bind RSK4
- expression of BCL2 and cIAP1/2 (A549 cells [2]): an effect not seen

SMILES: COc1c(N2C[C@@H]3CCCN[C@@H]3C2)c(F)cc2c(=O)c(C(=O)O)cn(C3CC3)c12 [moxifloxacin]
- cell migration/invasiveness (A549 cells [4]): shared this ability
- effect on ERK activity (ERK): did not interfere with ERK activity
- IC50 (RSK4 [1]): 6.2 µM
- mode of inhibition of RSK4 activation (RSK4 [1]): non-ATP competitive reversible inhibitor of RSK4 activation
- preference RSK4 activation vs fully-active RSK4 (RSK4 [1]): preference for preventing RSK4 activation rather than inhibiting fully-active RSK4
- selectivity RSK4 vs RSK1 (RSK4 [1]): favoured RSK4 over RSK1
- inhibition at 30 µM (RSK4 [1]; read-out: inhibition of RSK4 activation): > 75%
- α (non-competitive binding to Enzyme and Enzyme-Substrate state) (RSK4 [6]): 1
- effect on ATP Km and Vmax of RSK4 (RSK4 [6]; sub-maximal inhibition): maintained Km and displayed reduced Vmax

SMILES: CN1C[C@@H]2C[C@H]1CN2c1cc2c(cc1F)c(=O)c(C(=O)O)cn2C1CC1 [danofloxacin]
- cell migration/invasiveness (A549 cells [4]): did not impair cell invasiveness
- activity in RSK4 HTRF-activation assay (inhibitor or inactive) (RSK4 [1]): inactive analogues

SMILES: CN1CCN(c2c(F)cc3c(=O)c(C(=O)O)cn4c3c2OCN4C)CC1 [marbofloxacin]
- activity in RSK4 HTRF-activation assay (inhibitor or inactive) (RSK4 [1]): additional inhibitors

SMILES: C[C@H]1COc2c(N3CCN(C)CC3)c(F)cc3c(=O)c(C(=O)O)cn1c23 [levofloxacin]
- hazard ratio for overall survival vs placebo ([8]; adherent patients (n=937), 95% CI 0.69-0.999, p=0.048): 0.83
- hazard ratio in lung and bladder cancer patients compared to the entire cohort ([8]; lung and bladder cancer patients): further improved
- hazard ratio for overall survival vs placebo ([8]; non-adherent patients (n=543), 95% CI 0.89-1.40, p=0.36): 1.11
- median overall survival ([8]; patients adhering to trial treatment (n=937)): 72 months
- activity in RSK4 HTRF-activation assay (inhibitor or inactive) (RSK4 [1]): inhibited RSK4 activation
- cellular cIAP1 and cIAP2 expression (cIAP1 and cIAP2): decreased cellular cIAP1 and cIAP2 expression

More lines, main results first:

- activity in RSK4 HTRF-activation assay (inhibitor or inactive) (RSK4 [1]): additional inhibitors
SMILES: CN1CCN(c2c(F)cc3c(=O)c(C(=O)O)cn4c3c2SCC4)CC1 [rufloxacin]

- activity in RSK4 HTRF-activation assay (inhibitor or inactive) (RSK4 [1]): inactive analogues
SMILES: CCn1cc(C(=O)O)c(=O)c2cnc(N3CCCC3)nc21 [piromidic acid]

- activity in RSK4 HTRF-activation assay (inhibitor or inactive) (RSK4 [1]): additional inhibitors
SMILES: NC1CCN(c2nc3c(cc2F)c(=O)c(C(=O)O)cn3-c2ccc(F)cc2F)C1 (centres unmarked) [tosufloxacin, tosufloxacin tosylate]
- cell migration/invasiveness (A549 cells [4]): shared this ability

- IC50 (RSK4 [1]): 10 µM
- activity in RSK4 HTRF-activation assay (inhibitor or inactive) (RSK4 [1]): additional inhibitors
SMILES: N[C@@H]1[C@H]2CN(c3nc4c(cc3F)c(=O)c(C(=O)O)cn4-c3ccc(F)cc3F)C[C@@H]12 [trovafloxacin]
- cell migration/invasiveness (A549 cells [4]): reproduced the inhibition of cell migration/invasiveness
- binding to RSK4-NTKD [5]: bound the inactive/dephosphorylated, but not the fully-active
- expression of BCL2 and cIAP1/2 (A549 cells [2]): decreased expression of BCL2 and cIAP1/2
- benefit of combination with cisplatin in explants (bladder cancer explants): beneficial in 3 out of 4 patient-derived bladder cancer explants
- inhibition of other kinases (panel of 140 kinases): No other kinase was substantially inhibited
- sensitisation of A549 cells to cisplatin (A549 cells [7]; 7.5 μM, cisplatin 12.5 μM for 72 h): reducing the IC50 for cisplatin
- concentration giving maximal potentiation of cisplatin or taxol effects (A549 cells [7]; A549 cells): ≈ 10 μM
- nature of the relationship with cisplatin (A549 cells [7]; A549 cells): synergistic
- caspase activation in response to cisplatin (A549 cells [3]): promotion of caspase activation
- tumour growth vs vehicle-only (A549-Luc xenograft): significantly (p<0.05) decreased tumour growth
- activation of RSK1 in cells (RSK1): does not inhibit the activation of RSK1 in cells
